We go through three molecules from patent publication US12115157B2, “3-phenoxyazetidin-1-yl-heteroaryl pyrrolidine derivatives and the use thereof as medicament” (Boehringer Ingelheim International GmbH, priority 2021, dated 2024).

Structures are written as SMILES. Where only a bound is given, the exact number is not on record here.

For one data set, the system named is human hepatocytes. As to the kind of experiment: Metabolic stability in human hepatocytes. Format: in vitro ADME. The conditions noted are these: human hepatocyte suspension, 1 μM; predicted hepatic clearance as percentage of hepatic blood flow. How it is done: The metabolic degradation of a test compound was assayed in a human hepatocyte suspension. After recovery from cryopreservation, human hepatocytes were diluted in Dulbecco's modified eagle medium (supplemented with 3.5 μg glucagon/500 mL, 2.5 mg insulin/500 mL, 3.75 mg hydrocortisone/500 mL, 5% human serum) to obtain a final cell density of 1.0×10^6 cells/mL or 4.0×10^6 cells/mL, depending on the metabolic turnover rate of the test compound.
Following a 30 minutes preincubation in a cell culture incubator (37° C., 10% CO2), test compound solution was spiked into the hepatocyte suspension, resulting in a final test compound concentration of 1 μM and a final DMSO concentration of 0.05% (v/v).
The cell suspension was incubated at 37° C. (cell culture incubator, horizontal shaker) and samples were removed from the incubation after 0, 0.5, 1, 2, 4 and 6 hours. Samples were quenched with acetonitrile (containing internal standard) and pelleted by centrifugation. The supernatant was transferred to a 96-deepwell plate, and prepared for analysis of decline of parent compound by HPLC-MS/MS.
The percentage of remaining test compound was calculated using the peak area ratio (test compound/internal standard) of each incubation time point relative to the time point 0 peak area ratio. The log-transformed data were plotted versus incubation time, and the absolute value of the slope obtained by linear regression analysis was used to estimate in vitro half-life (T1/2).
In vitro intrinsic clearance (CLint) was calculated from in vitro T1/2 and scaled to whole liver using a hepatocellularity of 120×10^6 cells/g liver, a human liver per body weight of 25.7 g liver/kg as well as in vitro incubation parameters, applying the following equation: CL_[…]_IN VIVO[mL/min/kg]=(CL_[…][μL/min/10^6 cells]×hepatocellularity[10^6 cells/g liver]×liver factor[g/kg body weight])/1000
Hepatic in vivo blood clearance (CL) was predicted according to the well-stirred liver model considering an average liver blood flow (QH) of 20.7 mL/min/kg: CL[mL/min/kg]=CL_[…]_IN VIVO[mL/min/kg]×hepatic blood flow[mL/min/kg]/(CL_[…]_IN VIVO[mL/min/kg]+hepatic blood flow[mL/min/kg])
Results were expressed as percentage of hepatic blood flow: QH[%]=CL[mL/min/kg]/hepatic blood flow[mL/min/kg])

Data set [1] relates to primary human hepatocytes. As to the kind of experiment: In vitro metabolite profiling in primary human hepatocytes with or without proadifen. Format: in vitro ADME. The conditions noted are these: for % Parent of drug-related material: incubations in primary human hepatocytes, 1 μM test compound; for Contribution of amide hydrolysis to metabolism (incl. secondary metabolites): abundance of deacetylated metabolites relative to all metabolites. How it is done:
In vitro metabolite profiling to evaluate the involvement of non-CYP-enzyme-mediated metabolic pathways such as hydrolysis in addition to CYP-mediated pathways is based on the semiquantitative analysis of the formation of prototypic metabolites in incubations with liver microsomes (with and without beta-nicotinamide adenine dinucleotide phosphate, NADPH), primary human hepatocytes (with and without the pan-CYP inhibitor proadifen) and recombinant CYP enzymes.
An additional measure to identify CYP-independent metabolic pathways is the use of the pan-CYP inhibitor proadifen in incubations of the test compound with human hepatocytes. In presence of proadifen, the CYP-related pathways are inhibited and metabolites would primarily be generated via non-CYP pathways.
The involvement of non-CYP-enzymes in metabolic transformations of the test compound was further investigated using primary human hepatocytes in suspension in presence or absence of the pan-CYP inhibitor proadifen (50 μM final incubation concentration). After recovery from cryopreservation, human hepatocytes were incubated in Dulbecco's modified eagle medium supplemented with 3.5 μg glucagon/500 ml, 2.5 mg insulin/500 ml and 3.75 mg/500 ml hydrocortisone containing 5% (v/v) human serum.
Following a 30 min preincubation in a cell culture incubator (37° C., 10% CO2) with or without 50 μM proadifen, test compound solution was spiked into the hepatocyte suspension to obtain a final cell density of 1.0*10^6 to 4.0*10^6 cells/ml (depending on the metabolic turnover rate of the compound observed with primary human hepatocytes), a final test compound concentration of 1 μM, and a final DMSO concentration of 0.05% (v/v).
The cells were incubated for six hours (incubator, horizontal shaker) and samples were removed from the incubation after 0, 0.5, 1, 2, 4 or 6 hours, depending on the metabolic turnover rate. Samples were quenched with acetonitrile and pelleted by centrifugation. The supernatant was transferred to a 96-deepwell plate, evaporated under nitrogen, and resuspended prior to bioanalysis by liquid chromatography-high resolution mass spectrometry for identification of putative metabolites.
The contribution of hydrolysis was calculated based on the abundance of the respective deacetylated metabolite(s) of the compounds of the present invention relative to all metabolites observed in incubations with human hepatocytes.

Another data set has as its target hERG channel (Homo sapiens (Human), UniProt Q12809). Put plainly: hERG channel assay (whole-cell patch clamp). As to conditions: HEK293 cells stably transfected with hERG cDNA. The class given is cell-based. The source says: hERG Channel inhibition of compounds of the present invention was investigated as follows:
HEK (human embryonic kidney) 293 cells were stably transfected with hERG cDNA. Cells determined for use in patch clamp experiments were cultivated without antibiotic.
Cells were superfused with a bath solution containing (mM): NaCl (137), KCl (4.0), MgCl2 (1.0), CaCl2(1.8), Glucose (10), HEPES (10), pH 7.4 with NaOH. Patch pipettes were made from borosilicate glass tubing using a pipette and filled with pipette solution containing (mM): K-aspartate (130), MgCl2(5.0), EGTA (5.0), K2ATP (4.0), HEPES (10.0), pH 7.2 with KOH. Resistance of the microelectrodes was typically in the range between 2 MΩ and 5 MΩ.
Membrane currents were recorded using an EPC-10 patch clamp amplifier (HEKA Electronics, Lambrecht, FRG) and PatchMaster software (HEKA). hERG-mediated membrane currents were recorded at typically 28° C., using the whole-cell configuration of the patch-clamp technique. Transfected HEK293 cells were clamped at a holding potential of −60 mV and hERG-mediated inactivating tail currents were elicited using a pulse pattern with fixed amplitudes (activation/inactivation: 40 mV for 2000 ms; recovery: 120 mV for 2 ms; ramp to 40 mV in 2 ms; inactivating tail current: 40 mV for 50 ms) repeated at 15 s intervals. During each inter-pulse interval 4 pulses scaled down by a factor of 0.2 were recorded for a P/n leak subtraction procedure. Rs compensation was employed up to a level that safely allows recording devoid of ringing. The remaining uncompensated Rs was recorded as well as actual temperature and holding current.
The concentrations of the test item were applied sequentially on each of the different cells investigated. A steady state level of baseline current was measured for at least 5 sweeps prior to the application of the first test article concentration. The test item was dissolved in DMSO to yield a stock solution of 1000-fold the highest final concentration. This stock was diluted further in DMSO to stock solutions of 1000-fold the remaining final concentrations. Final dilutions in extracellular buffer were prepared freshly from these stocks by a 1:1000 dilution step each before starting the experiments.
Peak current amplitudes were measured 3 ms after the ramp to +40 mV. For baseline and each concentration, the peak currents of the three last sweeps before application of the next concentration were averaged. Residual currents (I/I0) were calculated for each cell as the fraction of actual average peak current and average baseline peak current. Current inhibition was expressed as […]. Current inhibition for all cells was reported as mean ±SD. If possible, from mean current inhibition data the IC50 was estimated based on the Hill equation using a least squares procedure.
Background: Block of hERG is tested as a sign of cardiac risk.

Chain of hERG channel (Q12809 whole entry): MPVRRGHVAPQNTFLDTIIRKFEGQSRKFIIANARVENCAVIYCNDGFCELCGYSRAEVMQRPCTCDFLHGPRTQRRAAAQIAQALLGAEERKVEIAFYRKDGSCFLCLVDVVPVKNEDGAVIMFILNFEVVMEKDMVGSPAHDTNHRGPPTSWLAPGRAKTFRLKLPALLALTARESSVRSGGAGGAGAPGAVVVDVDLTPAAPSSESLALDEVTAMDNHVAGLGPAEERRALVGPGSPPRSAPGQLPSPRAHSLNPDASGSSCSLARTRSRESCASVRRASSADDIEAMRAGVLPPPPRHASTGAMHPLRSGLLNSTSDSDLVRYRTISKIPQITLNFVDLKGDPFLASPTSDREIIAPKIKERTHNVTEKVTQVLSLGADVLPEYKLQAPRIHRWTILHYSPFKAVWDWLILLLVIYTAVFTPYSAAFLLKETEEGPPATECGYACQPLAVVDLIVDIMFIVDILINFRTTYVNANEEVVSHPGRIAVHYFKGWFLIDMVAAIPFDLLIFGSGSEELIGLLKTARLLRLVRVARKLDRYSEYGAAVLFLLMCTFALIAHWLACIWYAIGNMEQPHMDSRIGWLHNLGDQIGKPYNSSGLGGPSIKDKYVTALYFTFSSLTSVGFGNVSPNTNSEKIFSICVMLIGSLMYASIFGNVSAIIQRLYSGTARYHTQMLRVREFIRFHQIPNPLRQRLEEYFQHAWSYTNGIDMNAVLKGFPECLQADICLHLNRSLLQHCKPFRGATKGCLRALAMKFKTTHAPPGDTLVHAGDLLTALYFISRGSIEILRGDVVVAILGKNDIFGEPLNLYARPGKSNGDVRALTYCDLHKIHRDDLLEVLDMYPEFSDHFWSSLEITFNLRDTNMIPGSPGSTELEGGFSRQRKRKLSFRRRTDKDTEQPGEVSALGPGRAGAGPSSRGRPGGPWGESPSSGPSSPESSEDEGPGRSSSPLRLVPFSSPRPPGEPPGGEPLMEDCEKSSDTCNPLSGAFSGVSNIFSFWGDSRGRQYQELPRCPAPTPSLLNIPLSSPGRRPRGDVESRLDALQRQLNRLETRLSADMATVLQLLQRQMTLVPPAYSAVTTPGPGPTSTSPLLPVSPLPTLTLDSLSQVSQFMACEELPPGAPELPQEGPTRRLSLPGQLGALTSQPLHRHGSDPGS

`CC(=O)N1C[C@H](NC(=O)c2nccnc2N2CC(Oc3cc(F)cc(F)c3)C2)C(F)(F)C1` [Example 10a]: the “Human HepStab” value in the data set on human hepatocytes is 15.3 % QH. The “% Parent of drug-related material” value in data set [1] came to 86%. For the same molecule, in data set [1] (primary human hepatocytes), the “Contribution of amide hydrolysis to metabolism (incl. secondary metabolites)” value (“Contribution of amide hydrolysis” below) is on record as 51%. Moreover, the IC50 (commonly the concentration that inhibits the measured activity by half) against hERG channel is above 10 µM.
Regarding `CC(=O)N1C[C@H](NC(=O)c2nccnc2N2CC(Oc3cc(F)c(F)c(F)c3)C2)C(F)(F)C1` [Example 11b], the “Human HepStab” value in the data set with human hepatocytes is 11.4 % QH. Further, in data set [1] (formation of secondary metabolite m443 (of m429), primary human hepatocytes), the “% Inhibition by 50 μM proadifen” value is 82^6 % untreated control. In addition, in data set [1], the “% Parent of drug-related material” value was determined as 82%. Also, the “Contribution of amide hydrolysis” value in data set [1] (primary human hepatocytes) was 49%. The IC50 against hERG channel was above 10 µM.
As to `CC(=O)N1CC[C@@H](NC(=O)c2nsnc2N2CC(Oc3cc(F)cc(F)c3)C2)C1` [Example 15a], the “Human HepStab” value in the data set on human hepatocytes was 6.4 % QH. Besides, the “% Parent of drug-related material” value in data set [1] is 92%. In addition, the “Contribution of amide hydrolysis” value in data set [1] (primary human hepatocytes) was found to be 6%. The molecule further registered an IC50 on hERG channel above 10 µM.
